Experimental findings from patent US7279497B2, “Benzopyran derivatives substituted with secondary amines including imidazole, their preparation and pharmaceutical compositions containing them” (Korea Research Institute of Chemical Technology, priority 2002, dated 2007) are described below.

The IC50 is the concentration at which inhibition is half-maximal. Higher therefore signals weaker potency in that assay.

Structures are written as SMILES. Where “and” joins values, the source holds several entries; their conditions need not be identical. Equal entries are not always repeated.

In one assay the test system is isolated rat aorta. The assay can be described thus: Vasorelaxation effects on isolated blood vessels (methoxamine induced vasoconstriction). Here is the method: The following experiment was conducted to examine whether the compounds of the formula 1 have vasorelaxation effects.
Male Sprague-Dawly rats (350-450 g, obtained from the Experimental Animal Team of the Korea Research Institute of Chemical Technology) were knocked unconscious by hitting the occipital region, sacrificed by cervical dislocation, and underwent thoracotomy. After being quickly removed, the thoracic aorta was deprived of the adipose tissue and cut into aortic rings of 3 mm width. The aorta was lightly rubbed with a modified Krebs Henseleit buffer (Physiological Salt Solution, PSS) soaked cotton club to remove the inner epithelial layer therefrom. While being suspended in an organ bath containing a physiological buffer, the vascular tissue was allowed to equilibrate under a resting tension of 2 g and then, stand for 1 hour at 37° C. for stabilization with a supply of a carbogen consisting of 95% O2-5% CO2.
Thereafter, the vascular tissue was constricted with 10^−5 M phenylephrine and washed several times with PSS and this procedure was repeated again to ensure the stable reactivity of vascular smooth muscle to repetitive constriction/dilatation.
In addition, 3×10^−6 M methoxamine was used to induce an intensive constriction in the vascular smooth muscle. When the vasoconstriction induced by the methoxamine reached and maintained a maximum, test compounds and controls were cumulatively added to the organ baths in concentrations of 1, 3, 10 and 30 μM so as to induce vasodilatation. Cromakalim, BMS-180448, and BMS-191095 were used as the controls.
Following the addition of test compounds, the change in the maximal constriction induced by methoxamine was calculated to plot a concentration-relaxation response curve. Through a linear regression analysis, IC50, the drug concentration at which the vascular tissue is 50% dilated, was obtained for each compound.

The subject of the next assay is isolated rat hearts. In words: Cardioprotective activity in isolated ischemic rat heart (Langendorff). The conditions noted are these: 10 μM. Here is the method: In order to determine whether the compounds of the chemical formula 1 are protective for ischemic hearts in vitro, experiments determining the anti-ischemic effects of the compounds on isolated rat hearts were conducted as follows.
For all in vitro studies, isolated rat hearts were used according to the published methods after some modification [HJ Ring, Arzneim.-Forsch./Drug Res. 39 (II), 1535 (1989): T. Krzeminski, et al., J. Pharmacological Methods, 25, 95, (1991)]
Male Sprague-Dawley rats weighing 300-450 g were anesthetized with sodium pentobarbital (100 mg/kg, i.p.). The tail vein was injected with heparin (1,000 U/kg) and then the trachea was intubated. While rats were mechanically ventilated with a rodent ventilator (Model 7025, Ugobasile, Italy), their hearts were perfused in situ with oxygenated modified Krebs-Henseleit bicarbonate buffer (described herein) by retrograde aortic cannulation. The hearts were then excised and moved to a Langendorff apparatus (H.S.E., Germany), where they were perfused with oxygenated modified Krebs-Henseleit bicarbonate buffer containing (in mM) NaCl 116, NaHCO3 24.9, KCl 4.7, MgSO4 1.1, KH2PO4 1.17, CaCl2 2.52, glucose 8.32 and pyruvate 2.0 at a constant perfusion pressure (85 mm Hg). A latex balloon filled with solvent (ethanol:water=1:1 (v/v)) and attached to a metal cannula was placed in the left ventricle through pulmonary vein and connected to a Isotec pressure transducer (H.S.E., Germany) for measurement of left ventricular pressure (LVP). The hearts were allowed to equilibrate for 15 min, at which time left ventricular end-diastolic pressure (EDP) was adjusted to 5 mm Hg and this balloon volume was maintained throughout the experiment. Then, baseline contractile function, heart rate (HR), and coronary flow (CF) (extracorporeal electromagnetic flow probe, Narco Bio-System, U.S.A.) were measured. Cardiac contractile function was calculated by subtracting LVEDP from LV peak systolic pressure (LVSP), yielding developed pressure (LVDP). Double product (DP), another important parameter for assessing cardiac performance, was calculated by multiplying HR by LVDP. Throughout the experiment, all these parameters were measured, and calculated before and 10 min after pretreatment with each compound and 30 min after the onset of reperfusion with buffer. Data on reperfusion DP were further expressed as the percentage to pretreatment DP.
After stabilization for 15 min, the hearts were pretreated for 10 min with respective drugs (10 μM, 0.04% DMSO) or vehicle (0.04% DMSO) before onset of global ischemia; test agents were administered directly into the oxygenator of the Langendorff apparatus immediately above the aortic root in a retrograde fashion as solutions in the perfusate. We then rendered the hearts globally ischemic by completely shutting off the perfusate for 30 min. Severity of ischemia was determined as the time to contracture (TTC, min) during global ischemia in which the first 5 mmHg increase in EDP was observed. Then, the hearts were reperfused and, 30 min later, contractile function (LVDP, DP) and cumulative reperfusion lactate dehydrogenase (LDH) release were measured. LDH was measured as a sensitive index for loss of cell viability with a kit supplied by Boerhinger Mannheim based on the technique of Wroblewski and LaDue [F. Wroblewski and J S. La Due, Proc Soc Exp Biol Med 90, 210, (1955)].

On to `COC(OC)[C@@]1(C)Oc2ccc([N+](=O)[O-])cc2[C@@H](N(Cc2ncc[nH]2)c2ccc(Cl)cc2)[C@@H]1O` [Example 1, (2S,3S,4R)-3,4-dihydro-2-dimethoxymethyl-3-hydroxy-2-methyl-6-nitro-4-[N-(4-chlorophenyl)-N-(1H-imidazol-2-ylmethyl)amino]-2H-1-benzopyran], for which 9.83 µM corresponded to half-maximal inhibition in the assay on isolated rat aorta (rat aorta constricted with methoxamine (3 μM)) (IC50). Besides, the “vasorelaxant potency lower than BMS-180448” value with isolated rat aorta (ratio of IC50) came out at 7 times. In addition, the “LDVP × HR (%)” value in the assay on isolated rat hearts (30 min reperfusion, % of pretreatment DP) is listed as 55.7%. Moreover, in the assay on isolated rat hearts (global ischemia), the “TTC (time to contracture)” value is 28 min and 28.0 min. In addition, in the assay on isolated rat hearts (reperfusion), the EDP amounted to 24.0 MmHg and the “LDH (reperfusion release)” value came out at 10.7 U/g.
